Read-outs that look alike come from different tables or passages of the source.
How the values were obtained:
SRC [1] = biological target: T1, SRC (Homo sapiens, UniProt P12931); assay type: biochemical; details: read-out: IC50, Src protein
Description: Kinase was preincubated with inhibitor at 37° C. for 10 min prior to starting the reaction upon addition of ATP; Assay was carried out in 384 well clear plates (Corning) and absorbance was measured on SpectraMax plate reader (Molecular Devices). Reaction rates were plotted against inhibitor concentration and fitted using SigmaPlot 9.0 (Systat Software Inc.).

K562 cells = test: Cellular proliferation, [3H]thymidine uptake; assay type: cell-based; details: Homo sapiens, K562, read-out: IC50, K562 cells proliferation
Description: (§1) The immortalized human hematopoietic Philadelphia chromosome-positive cytokine independent R10(−) M07e^p210 cell line (46) was maintained in Iscove's modified Dulbecco's medium (Life Technologies, Inc., Grand Island, N.Y.) containing 10% FCS (Hyclone, Logan, Utah). The parental M07e megakaryoblastic cell line was a kind gift of Brian Druker and was maintained in the presence of 50 ng/mL kit ligand (SCF) as described (46-47) K562 was obtained from the ATCC. […] Tumor cell cultures were maintained in a humidified atmosphere with 5% CO2 at 37° C. (NuAire).
(§2) Data points for all assays were obtained in triplicate, and background incorporation from cell-free wells was determined and subtracted from all data points. The data was analyzed using a non-linear regression fit to a sigmoidal dose-response curve using Prism 4 (GraphPad Software, Inc).

[2] = test system: R10 neg cells (MO7e/p210^bcr-abl); test: Cellular proliferation, [3H]thymidine uptake; assay type: cell-based; details: Homo sapiens, read-out: IC50, R10 neg cells (MO7e/p210^bcr-abl) proliferation
Description: as §1, §2

M07e cells = test: Cellular proliferation, [3H]thymidine uptake, Kit ligand dependent growth; assay type: cell-based; details: Homo sapiens, M-07e, read-out: IC50, M07e cells proliferation
Description: The immortalized human hematopoietic Philadelphia chromosome-positive cytokine independent R10(−) M07e^p210 cell line (46) was maintained in Iscove's modified Dulbecco's medium (Life Technologies, Inc., Grand Island, N.Y.) containing 10% FCS (Hyclone, Logan, Utah). The parental M07e megakaryoblastic cell line was a kind gift of Brian Druker and was maintained in the presence of 50 ng/mL kit ligand (SCF) as described (46-47) K562 was obtained from the ATCC. K562 was maintained in suspension in 90% RPMI 1640 medium supplemented with 10% FBS, 2 mM L-glutamine, 10 mM HEPES, 1 mM sodium pyruvate, 1.5 g/L sodium bicarbonate, 4.5 g/L […], 10% FBS, 100 IU/mL penicillin and 100 μg/ml streptomycin. Tumor cell cultures were maintained in a humidified atmosphere with 5% CO2 at 37° C. (NuAire).
. Data points for all assays were obtained in triplicate, and background incorporation from cell-free wells was determined and subtracted from all data points. The data was analyzed using a non-linear regression fit to a sigmoidal dose-response curve using Prism 4 (GraphPad Software, Inc).

SRC [3] = biological target: T1, SRC; test: biochemical
From the text: (§3) An ELISA-based assay was used in which the phosphorylation of an oligopeptide substrate was detected by an HRP-conjugated anti-p-Tyr (PY20) probe.

[4] = Octanol/water partition coefficient determination; assay type: physicochemical; details: n-octanol/water
[5] = Protein binding assay, serum; assay type: in vitro ADME; details: fresh human serum
Description: Protein binding of the radiotracers were determined adding 37 kBq (1 μCi) of each radioligand to samples of 1% bovine serum albumin and 1 mL of fresh human serum. The protein was precipitated by adding 1 mL of ice cold 20% trichloroacetic acid and the suspension centrifuged and washing with 1 mL of 20% ice cold trichloroacetic acid. The protein pellets and supernatants were counted in a gamma counter to determine the protein binding of the radioligands.

B6D2F1 mice = test: Acute toxicity in mice; assay type: in vivo; details: for toxicity in mice: 0.1 mg/kg intravenously, single dose, 14 days observation
From the text: Each group contained three mice. […] There were five males and five females in either control or treatment group. […] Mice were sent for pathology, including complete blood cell count, complete chemistry panel and complete necropsy. Two intact male mice and two intact female mice were also sent and used as references.

ABL = ABL (Homo sapiens, UniProt P00519); test: QuickScout ELISA kinase panel; assay type: biochemical; design: purchased Carna Biosciences (QuickScout service)
From the text: as §3

[6] = 0.1 mg/kg i.v., 14 days, average, same in control group

Sequence of ABL (P00519 whole entry): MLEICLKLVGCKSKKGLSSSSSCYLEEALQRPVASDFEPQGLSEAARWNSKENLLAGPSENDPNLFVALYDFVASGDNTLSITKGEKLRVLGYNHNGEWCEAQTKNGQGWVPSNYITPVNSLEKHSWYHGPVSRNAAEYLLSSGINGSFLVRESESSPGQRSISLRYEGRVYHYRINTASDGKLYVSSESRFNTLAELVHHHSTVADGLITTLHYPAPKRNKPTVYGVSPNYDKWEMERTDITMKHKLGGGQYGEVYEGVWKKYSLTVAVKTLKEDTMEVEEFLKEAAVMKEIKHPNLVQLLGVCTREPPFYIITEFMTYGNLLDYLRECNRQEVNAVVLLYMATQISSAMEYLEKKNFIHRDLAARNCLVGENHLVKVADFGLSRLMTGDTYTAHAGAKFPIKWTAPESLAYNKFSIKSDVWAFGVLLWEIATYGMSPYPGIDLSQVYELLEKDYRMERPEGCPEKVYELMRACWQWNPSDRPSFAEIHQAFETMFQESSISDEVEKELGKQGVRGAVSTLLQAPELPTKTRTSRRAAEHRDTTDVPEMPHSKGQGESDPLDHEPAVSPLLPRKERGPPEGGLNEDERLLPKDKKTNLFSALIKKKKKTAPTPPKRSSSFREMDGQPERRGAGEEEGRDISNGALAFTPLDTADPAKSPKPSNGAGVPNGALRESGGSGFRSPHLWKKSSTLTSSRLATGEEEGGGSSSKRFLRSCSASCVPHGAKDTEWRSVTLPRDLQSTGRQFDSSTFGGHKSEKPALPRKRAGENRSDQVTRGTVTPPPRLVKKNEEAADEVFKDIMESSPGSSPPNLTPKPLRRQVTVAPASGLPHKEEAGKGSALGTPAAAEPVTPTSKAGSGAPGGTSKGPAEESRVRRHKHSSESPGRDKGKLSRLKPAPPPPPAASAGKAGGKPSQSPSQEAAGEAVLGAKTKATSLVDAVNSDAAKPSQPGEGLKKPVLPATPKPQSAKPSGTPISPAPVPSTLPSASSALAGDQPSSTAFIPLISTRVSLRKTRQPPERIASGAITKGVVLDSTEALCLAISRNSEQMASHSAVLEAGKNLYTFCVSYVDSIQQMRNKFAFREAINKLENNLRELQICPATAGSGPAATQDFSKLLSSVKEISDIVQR
T1 sequence (P12931 whole entry): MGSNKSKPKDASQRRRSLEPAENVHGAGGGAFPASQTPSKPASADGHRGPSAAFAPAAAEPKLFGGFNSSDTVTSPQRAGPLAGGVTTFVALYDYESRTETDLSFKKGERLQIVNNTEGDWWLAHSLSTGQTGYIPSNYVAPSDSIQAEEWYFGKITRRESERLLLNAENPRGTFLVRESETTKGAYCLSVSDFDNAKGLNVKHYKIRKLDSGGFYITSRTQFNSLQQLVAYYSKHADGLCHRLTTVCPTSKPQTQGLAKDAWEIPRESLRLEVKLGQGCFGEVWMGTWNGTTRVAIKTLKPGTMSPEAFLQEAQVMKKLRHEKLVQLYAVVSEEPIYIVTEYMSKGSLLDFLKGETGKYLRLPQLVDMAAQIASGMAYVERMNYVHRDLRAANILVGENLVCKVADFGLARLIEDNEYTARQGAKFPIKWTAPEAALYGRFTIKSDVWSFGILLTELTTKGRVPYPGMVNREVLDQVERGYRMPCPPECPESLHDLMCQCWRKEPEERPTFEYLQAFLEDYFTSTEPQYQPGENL

Question: What does the source list for `Cc1nc(Nc2ncc(C(=O)Nc3c(C)cccc3Cl)s2)cc(N2CCN(CCF)CC2)n1` [Compound 5, N-(2-Chloro-6-methylphenyl)-2-(6-(4-(2-fluoroethyl)piperazin-1-yl)-2-methylpyrimidin-4-ylamino)thiazole-5-carboxamide]?
Answer: IC50 (SRC [1]): 3.5 ± 2.2 nM; IC50 (K562 cells): 1.1 nM; IC50 [2]: 0.1 nM; IC50 (M07e cells): 1.1 nM; IC50 (SRC [3]): < 2 nM; % Inhibition of Kinase Activity, SRC (SRC [3]; Compound 5 at 10 nM, 0.01 µM): 97.5%; inhibition at 0.01 µM (SRC [3]; read-out: % Inhibition of Kinase Activity, SRC, Compound 5 at 10 nM): > 97%; logD at 2 h [4]: 2.1 ± 0.6; protein bound in serum [5]: 98.5±1.0%; body weight gain, female mice (B6D2F1 mice; [6]): 0.5 g; body weight gain, male mice (B6D2F1 mice; [6]): 1.8 g; toxicity in mice (B6D2F1 mice): has not shown toxicity; toxicity in mice (B6D2F1 mice; listed as fluoro derivative 5): safe and nontoxic; IC50 (ABL): < 2 nM; inhibition at 0.01 µM (ABL; Compound 5 at 10 nM): > 97%; % Inhibition of Kinase Activity, ABL (ABL; Compound 5 at 10 nM, 0.01 µM): 99.4%

Reference: US20100226853A1 (priority 2007, published 2010)
